Laboratory results as given in patent US10370371B2, “Substituted pyrimidine Bmi-1 inhibitors” (PTC Therapeutics, Inc., priority 2013, dated 2019).

Tests used:
Bmi-1 protein = experiment: Sandwich ELISA Assay (Bmi-1 protein level in HT-1080 cells); format: cell-based
How it was run: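 HT-1080 cells were treated with compounds (0.5% DMSO final) for 40-48 h at 37 °C. Lysates were assayed by sandwich ELISA: mouse anti-Bmi-1 capture, rabbit anti-Bmi-1 and HRP anti-rabbit detection, TMB read at OD450 (OD570 reference). Levels were quantified against a recombinant GST-Bmi-1 standard curve (125-8000 pg/mL).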

EC50 (Bmi-1 protein) [µM]	melting point [°C]	Structure (SMILES)
0.001 to 0.01	189 to 190	Cc1nc2ccc(F)cn2c1-c1cc(N)nc(Nc2ccc(OC(F)F)cc2)n1 [Cpd 2, N^2-[4-(difluoromethoxy)phenyl]-6-(6-fluoro-2-methylimidazo[1,2-a]pyridin-3-yl)pyrimidine-2,4-diamine]
0.01 to 0.1	141 to 143	Cc1nc2ccc(F)cc2n1-c1cc(N)nc(Nc2ccc(OC(F)F)cc2)n1 [Cpd 5, N^2-[4-(difluoromethoxy)phenyl]-6-(6-fluoro-2-methyl-1H-benzimidazol-1-yl)pyrimidine-2,4-diamine]
0.01 to 0.1	159 to 161	CCc1nc2ccc(F)cc2n1-c1cc(N)nc(Nc2ccc(OC(F)F)c(F)c2)n1 [Cpd 11, N^2-[4-(difluoromethoxy)-3-fluorophenyl]-6-(2-ethyl-6-fluoro-1H-benzimidazol-1-yl)pyrimidine-2,4-diamine]
0.01 to 0.1	–	Cc1nc2cc(F)c(F)cc2n1-c1cc(N)nc(Nc2ccc(Cl)cc2)n1 [Cpd 182, N^2-(4-chlorophenyl)-6-(5,6-difluoro-2-methyl-1H-benzimidazol-1-yl)pyrimidine-2,4-diamine]
0.01 to 0.1	–	Cc1ccc(Nc2nc(N)cc(-n3c(C)nc4cc(C)c(C)cc43)n2)cc1 [Cpd 183, N^2-(4-methylphenyl)-6-(2,5,6-trimethyl-1H-benzimidazol-1-yl)pyrimidine-2,4-diamine]
0.1 to 3	–	Cc1ccc(Nc2nc(N)cc(-c3c(C)noc3C)n2)cc1 [Cpd 190, 6-(3,5-dimethyl-1,2-oxazol-4-yl)-N^2-(4-methylphenyl)pyrimidine-2,4-diamine]
0.1 to 3	–	Cc1nc2cc(F)ccc2n1-c1cc(N)nc(Nc2ccc(Cl)cc2)n1 [Cpd 191, N^2-(4-chlorophenyl)-6-(5-fluoro-2-methyl-1H-benzimidazol-1-yl)pyrimidine-2,4-diamine]
0.1 to 3	–	Cc1nc2cc(F)ccc2n1-c1cc(N)nc(Nc2ccc(Cl)c(F)c2)n1 [Cpd 192, N^2-(4-chloro-3-fluorophenyl)-6-(5-fluoro-2-methyl-1H-benzimidazol-1-yl)pyrimidine-2,4-diamine]
0.1 to 3	–	Cc1nc2cc(F)c(F)cc2n1-c1cc(N)nc(Nc2cccc(Cl)c2)n1 [Cpd 193, N^2-(3-chlorophenyl)-6-(5,6-difluoro-2-methyl-1H-benzimidazol-1-yl)pyrimidine-2,4-diamine]
0.1 to 3	–	Cc1nc2cc(F)c(F)cc2n1-c1cc(N)nc(Nc2ccc([N+](=O)[O-])cc2)n1 [Cpd 194, 6-(5,6-difluoro-2-methyl-1H-benzimidazol-1-yl)-N^2-(4-nitrophenyl)pyrimidine-2,4-diamine]
0.1 to 3	–	Cc1cccc(Nc2nc(N)cc(-n3c(C)nc4cc(F)c(F)cc43)n2)c1 [Cpd 195, 6-(5,6-difluoro-2-methyl-1H-benzimidazol-1-yl)-N^2-(3-methylphenyl)pyrimidine-2,4-diamine]
0.1 to 3	–	COc1cccc(Nc2nc(N)cc(-n3c(C)nc4cc(F)c(F)cc43)n2)c1 [Cpd 196, 6-(5,6-difluoro-2-methyl-1H-benzimidazol-1-yl)-N^2-(3-methoxyphenyl)pyrimidine-2,4-diamine]
0.1 to 3	–	COc1ccc(Nc2nc(N)c(Cl)c(-n3c(C)nc4ccccc43)n2)cc1 [Cpd 197, 5-chloro-N^2-(4-methoxyphenyl)-6-(2-methyl-1H-benzimidazol-1-yl)pyrimidine-2,4-diamine]
0.1 to 3	–	Cc1noc(C)c1-c1cc(N)nc(Nc2ccc(Cl)cc2)n1 [Cpd 198, N^2-(4-chlorophenyl)-6-(3,5-dimethylisoxazol-4-yl)pyrimidine-2,4-diamine]
0.1 to 3	–	Cc1nc2cc(F)ccc2n1-c1cc(N)[n+]([O-])c(Nc2ccc(C(F)(F)F)cc2)n1 [Cpd 199, 6-(5-fluoro-2-methyl-1H-benzimidazol-1-yl)-N^2-[4-(trifluoromethyl)phenyl]pyrimidine-2,4-diamine 3-oxide]
